The text below walks through data of patent US8337906B2, “Nasal composition” (priority 2006, dated 2012).

Format in all cases: cell-based
In experiment [1] the test system is Pseudomonas aeruginosa (PAO1) biofilm. Nature of the experiment: Peg-lid biofilm formation assay (crystal violet, 595 nm). As to conditions: dilutions 0.010% to 10.000%. As to the method:
(§1) The anti-bacterial properties of ascorbic acid were evaluated by testing the effect of dilutions of the material on both biofilm and planktonic growth forms of a Pseudomonas aeruginosa isolate that was obtained from patients with cystic fibrosis. Pseudomonas aeruginosa is a common pathogen isolated from the sinuses of patients with chronic rhinosinusitis. The results of this evaluation as shown graphically in FIG. 1.
(§2) Known concentrations of the bacteria were placed in the 96 well culture plates. Dilutions of ascorbic acid (0% (Control), 0.010%, 0.033%, 0.100%, 0.330%, 1.000%, 3.330%, and 10.000%) were added to predetermined wells. […] The bacterial growth was measured both on the pegs as a biofilm and in the wells as planktonic cells.
(§3) More specifically, both bacterial planktonic and biofilm growth were determined using a modification of the plate based assay described by “Moskowitz et al. (Moskowitz S M, Foster J M, Emerson J, et al. Clinically feasible biofilm susceptibility for isolates of Pseudomonas aeruginosa from patients with cystic fibrosis. J. Clin. Microbiol. 2004, 42: 1915-1922). […] The original culture plate was read at OD600 to determine planktonic growth. […] The lid containing the pegs was then removed from the eluted crystal violet and read at 595 nm using a plate reader (Microplate Reader 680, Bio-Rad Hercules, Calif.). […]

Experiment [2] has as its system human sinonasal mucosa cilia. Nature of the experiment: Cilia beat frequency (CBF) in human sinonasal mucosa explants. The text has this:
[…] were subjected to concentrations of the nasal spray solution to test the effect of the product on the cilia beat frequency (CBF). The samples were microscopically visualized and the images captured at a rate of 250 frames per second using digital image sampling. The samples were first visualized for two to three seconds every minute for five minutes to establish a baseline Cilia Beating Rate. The samples were then subjected to dilutions of the formulation and the effect on the beating rate was measured by comparing this rate to the baseline rate. The results of the measured CBF are seen in FIG. 2.
More specifically, using a dual temperature controlled perfusion chamber, differential interference contrast microscopy, and high speed digital video, epithelial ciliary function was analyzed as described previously (Schipor I, Palmer I N, Cohen A S, Cohen N A. Quantification of ciliary beat frequency in sinonasal epithelial cells using differential interference contrast microscopy and high speed digital video imaging. Am J Rhino 12006; 20: 124-7). Residual human sinonasal mucosa from surgery was placed in ice cold Locke Ringer's solution [136 mM Nacl, 5.6 mM KCI, 10 mM HEPES, 14.3 mM NaHCO, 1.2 mM MgCl2, 2.2 mM CaCl2 and 11.5 mM dextrose, pH 7.35] for transport. Explants were placed in a glass perfusion chamber on a thermostatically controlled stage and held in place with a nylon grid (1.5 mm) whose outer frame is snapped into the inside of the perfusion chamber. The stage and perfusate were maintained at a temperature between 35.5° C. and 37° C. with a dual channel heater (Warner Inst., Hamden Conn.). […]
Images were visualized using a Leica DMLFSA microscope set on an air table (TMC, Peabody, Mass.) using a water immersion 63× objective and differential interference contrast (DIC) optics (Leica Microsystems, Inc., Bannockburn, Ill.). […] A two to three second video was recorded every minute for 5 minutes to establish a baseline frequency. […] The video images were written to a PCI 2.2 board and then analyzed using Midas Professional Analyst video imaging processing software (XCitex, Cambridge, Mass.).
Beating cilia were analyzed using the 1-D line tracking algorithm included in the motion analysis software. […] The software captured the motion history within the analysis grid for the duration of the video and recorded the gray scale intensity variation as a function of time. […] The frequency was calculated as the inverse of the peak-to-peak distance of this waveform. For each sample, at least three areas of beating cilia within the same field were analyzed and the reported frequencies represent the arithmetic means of these values. […]

Experiment [3] deals with Pseudomonas aeruginosa (PAO1). Nature of the experiment: Plate based assay, planktonic growth (OD600). As to conditions: dilutions 0.010% to 10.000%. As to the method: as §1, §2, §3

For `O=C1O[C@H]([C@@H](O)CO)C(O)=C1O` [ascorbate, ascorbic acid], the “inhibition of biofilm form (in words)” value in experiment [1] is reported as “dose dependent inhibition”. Also, the “sinonasal CBF with increasing concentration (in words)” value in experiment [2] (0.01% to 0.1%) is reported as “increasing trend”. Also, the “increase in CBF” value in experiment [2] (0.1% ascorbate vs control) was 13.5%. In addition, in experiment [2] (0.1% ascorbate, extrapolated from CBF increase), the “increase in mucous transport” value was roughly 50%. This molecule gave a CBF in experiment [2] (0.1% ascorbate, control 11.8 Hz) of 1304 Hz. Further, the “inhibition of planktonic form (in words)” value in experiment [3] was “dose dependent inhibition”.
